The record followed here is patent US10611731B2, “5-methyl-6-phenyl-4,5-dihydro-2H-pyridazin-3-one derivative” (OTSUKA PHARMACEUTICAL CO., LTD., priority 2016, dated 2020).

Some results are limits rather than exact numbers.

In the test the test system is human childhood brain tumor cell lines (PFSK-1). Put plainly: Growth inhibitory activity against PFSK-1 cells (WST-8, Cell Counting Kit-8). Format: cell-based. Conditions: Homo sapiens, 72 h, 3 days incubation with test compound, WST-8 OD 450/630 nm, read-out: IC50 (concentration inhibiting 50% of the cell growth). As for the experimental part:
The growth inhibitory activity against human childhood brain tumor cell lines (PFSK-1) was measured with WST-8 reagent [2-(2-methoxy-4-nitrophenyl)-3-(4-nitrophenyl)-5-(2,4-disulfophenyl)-2H-tetrazolium monosodium salt, Cell Counting Kit-8™], according to the method described in Tominaga, H. et al., Anal. Commun., 1999, 36, 47-50. Briefly, PFSK-1 was seeded in 96-well microplate at 100 μL/well with Roswell Park Memorial Institute (RPMI) 1640 medium containing 10% fetal bovine serum (FBS), and the cells were incubated in the presence of 5% carbon dioxide (CO2) at 37° C. for 24 hours. 50 μL of each test compound diluted with the medium was added to each well, and then the cells were incubated further for 3 days. After the incubation, 15 μL of Cell Counting Kit-8™ was added to each well, and the cells were incubated for one and half hours. Then, optical density (OD) values at measurement wavelength 450 nm and reference wavelength 630 nm were measured and the difference thereof was calculated. From the calculated difference, the OD value difference (at measurement wavelength 450 nm and reference wavelength 630 nm) of the control well which includes no cell was subtracted to afford cell-growth activity in each well.
The cell growth inhibitory activity of each test compound was calculated by comparing the cell-growth activity with each test compound to the cell-growth activity without any test compound (control), and each IC50 (nM) which is the concentration inhibiting 50% of the cell growth was calculated.
(In general: Formazan colour is commonly taken as a measure of viable cells.)
In the case of `Cc1c(OCC(C)O)ccc(C2=NNC(=O)CC2C)c1O` (centres unmarked) [Example 74, 6-[2-hydroxy-4-(2-hydroxypropoxy)-3-methylphenyl]-5-methyl-4,5-dihydro-2H-pyridazin-3-one], the IC50 was determined as 4.1 nM. In the case of `CC(O)COc1ccc(C2=NNC(=O)CC2C)c(O)c1Cl` (centres unmarked) [Example 75, 6-[3-Chloro-2-hydroxy-4-(2-hydroxypropoxy)phenyl]-5-methyl-4,5-dihydro-2H-pyridazin-3-one] it was 3.2 nM; in that of `CC1CC(=O)NN=C1c1ccc(OC/C=C\CO)c(Cl)c1F` (centres unmarked) [Example 76, 6-{3-chloro-2-fluoro-4-[(Z)-4-hydroxy-2-butenyloxy]phenyl}-5-methyl-4,5-dihydro-2H-pyridazin-3-one], 2.7 nM; in that of `Cc1cc(C2=NNC(=O)CC2C)cc(Cl)c1OCCCCO` (centres unmarked) [Example 79, 6-[3-Chloro-4-(4-hydroxybutoxy)-5-methylphenyl]-5-methyl-4,5-dihydro-2H-pyridazin-3-one], 5.6 nM. For `CC1CC(=O)NN=C1c1cc(F)c(OCCCCO)c(Br)c1` (centres unmarked) [Example 80, 6-[3-Bromo-5-fluoro-4-(4-hydroxybutoxy)phenyl]-5-methyl-4,5-dihydro-2H-pyridazin-3-one] the value was 5.1 nM; for `CC1CC(=O)NN=C1c1cc(Cl)c(OCCCCO)c(Cl)c1` (centres unmarked) [Example 81, 6-[3,5-Dichloro-4-(4-hydroxybutoxy)phenyl]-5-methyl-4,5-dihydro-2H-pyridazin-3-one], 4.7 nM; for `CC1CC(=O)NN=C1c1ccc(OCCCCO)c(F)c1F` (centres unmarked) [Example 82, 6-[2,3-Difluoro-4-(4-hydroxybutoxy)phenyl]-5-methyl-4,5-dihydro-2H-pyridazin-3-one], 6 nM. As for `Cc1c(OCCCCO)ccc(C2=NNC(=O)CC2C)c1F` (centres unmarked) [Example 83, 6-[2-Fluoro-4-(4-hydroxybutoxy)-3-methylphenyl]-5-methyl-4,5-dihydro-2H-pyridazin-3-one], the IC50 is 6.6 nM. For `CC1CC(=O)NN=C1c1ccc(OCCCCO)c(Cl)c1F` (centres unmarked) [Example 84, 6-[3-Chloro-2-fluoro-4-(4-hydroxybutoxy)phenyl]-5-methyl-4,5-dihydro-2H-pyridazin-3-one] the value was 3.3 nM; for `C=Cc1c(OCCCO)ccc(C2=NNC(=O)CC2C)c1F` (centres unmarked) [Example 85, 6-[2-Fluoro-4-(3-hydroxypropoxy)-3-vinylphenyl]-5-methyl-4,5-dihydro-2H-pyridazin-3-one], 4 nM; for `Cc1cc(C2=NNC(=O)CC2C)cc(Cl)c1OC/C=C\CO` (centres unmarked) [Example 86, 6-{3-Chloro-4-[(Z)-4-hydroxy-2-butenyloxy]-5-methylphenyl}-5-methyl-4,5-dihydro-2H-pyridazin-3-one], 4.6 nM. As for `CC1CC(=O)NN=C1c1ccc(OC/C=C/CO)c(Cl)c1F` (centres unmarked) [Example 90, 6-[3-Chloro-2-fluoro-4-[(E)-4-hydroxy-2-butenyloxy]phenyl}-5-methyl-4,5-dihydro-2H-pyridazin-3-one], the IC50 turned out to be 3.9 nM. Regarding `CC1CC(=O)NN=C1c1ccc(OCCCCCO)c(Cl)c1F` (centres unmarked) [Example 91, 6-[3-Chloro-2-fluoro-4-(5-hydroxypentoxy)phenyl]-5-methyl-4,5-dihydro-2H-pyridazin-3-one], the IC50 was 6 nM. In the case of `Cc1c(OC/C=C\CO)ccc(C2=NNC(=O)CC2C)c1F` (centres unmarked) [Example 92, 6-[2-Fluoro-4-[(Z)-4-hydroxy-2-butenyloxy]-3-methylphenyl]-5-methyl-4,5-dihydro-2H-pyridazin-3-one] it was 4.9 nM.

`CC1CC(=O)NN=C1c1ccc(OC/C=C\CO)c(F)c1F` (centres unmarked) [Example 93, 6-{2,3-Difluoro-4-[(Z)-4-hydroxy-2-butenyloxy]phenyl}-5-methyl-4,5-dihydro-2H-pyridazin-3-one]: the IC50 was 3.1 nM. For `CC1CC(=O)NN=C1c1cc(F)c(OC/C=C\CO)c(Cl)c1` (centres unmarked) [Example 94, 6-{3-Chloro-5-fluoro-4-[(Z)-4-hydroxy-2-butenyloxy]phenyl}-5-methyl-4,5-dihydro-2H-pyridazin-3-one] the value was 3 nM; for `CC1CC(=O)NN=C1c1cc(F)c(OC/C=C\CO)c(Br)c1` (centres unmarked) [Example 95, 6-{3-Bromo-5-fluoro-4-[(Z)-4-hydroxy-2-butenyloxy]phenyl}-5-methyl-4,5-dihydro-2H-pyridazin-3-one], 3 nM; for `C=Cc1c(OC/C=C\CO)ccc(C2=NNC(=O)CC2C)c1F` (centres unmarked) [Example 96, 6-{2-Fluoro-4-[(Z)-4-hydroxy-2-butenyloxy]-3-vinylphenyl}-5-methyl-4,5-dihydro-2H-pyridazin-3-one], 3.9 nM. For `CCc1c(OCCCCO)ccc(C2=NNC(=O)CC2C)c1F` (centres unmarked) [Example 97, 6-[3-Ethyl-2-fluoro-4-(4-hydroxybutoxy)phenyl]-5-methyl-4,5-dihydro-2H-pyridazin-3-one] the value was 8.6 nM; for `Cc1cc(C2=NNC(=O)CC2C)cc(Cl)c1OCC(C)(C)CCO` (centres unmarked) [Example 98, 6-[3-chloro-4-(4-hydroxy-2,2-dimethylbutoxy)-5-methylphenyl]-5-methyl-4,5-dihydro-2H-pyridazin-3-one], 3.6 nM; for `CC1CC(=O)NN=C1c1cc(F)c(OCC(C)(C)CCO)c(Cl)c1` (centres unmarked) [Example 99, 6-[3-chloro-5-fluoro-4-(4-hydroxy-2,2-dimethylbutoxy)phenyl]-5-methyl-4,5-dihydro-2H-pyridazin-3-one], less than 1 nM.

Regarding `CC1CC(=O)NN=C1c1cc(Cl)c(OCC(C)(C)CCO)c(Cl)c1` (centres unmarked) [Example 100, 6-[3,5-dichloro-4-(4-hydroxy-2,2-dimethylbutoxy)phenyl]-5-methyl-4,5-dihydro-2H-pyridazin-3-one], the IC50 turned out to be 1.6 nM. For `Cc1cc(C2=NNC(=O)CC2C)cc(F)c1OCC(C)(C)CCO` (centres unmarked) [Example 101, 6-[3-Fluoro-4-(4-hydroxy-2,2-dimethylbutoxy)-5-methylphenyl]-5-methyl-4,5-dihydro-2H-pyridazin-3-one] the value was 7.5 nM; for `CC1CC(=O)NN=C1c1ccc(OCC(C)(C)CCO)c(F)c1F` (centres unmarked) [Example 102, 6-[2,3-Difluoro-4-(4-hydroxy-2,2-dimethylbutoxy)phenyl]-5-methyl-4,5-dihydro-2H-pyridazin-3-one], 3.4 nM; for `CC1CC(=O)NN=C1c1ccc(OCC(C)(C)CCO)c(Cl)c1F` (centres unmarked) [Example 103, 6-[3-Chloro-2-fluoro-4-(4-hydroxy-2,2-dimethylbutoxy)phenyl]-5-methyl-4,5-dihydro-2H-pyridazin-3-one], 2.6 nM.

Consider `CC(O)COc1ccc(C2=NNC(=O)CC2C)c(F)c1C#N` (centres unmarked) [Example 104, 2-fluoro-6-(2-hydroxypropoxy)-3-(4-methyl-6-oxo-4,5-dihydro-1H-pyridazin-3-yl)benzonitrile], for which the IC50 turned out to be 5.2 nM. For `CC1CC(=O)NN=C1c1ccc(OCC(C)(C)O)c(C#N)c1F` (centres unmarked) [Example 105, 2-Fluoro-6-(2-hydroxy-2-methylpropoxy)-3-(4-methyl-6-oxo-4,5-dihydro-1H-pyridazin-3-yl)benzonitrile] the value was 9 nM; for `CC1CC(=O)NN=C1c1ccc(OCCCO)c(C#N)c1F` (centres unmarked) [Example 106, 2-fluoro-6-(3-hydroxypropoxy)-3-(4-methyl-6-oxo-4,5-dihydro-1H-pyridazin-3-yl)benzonitrile], 6.4 nM; for `CC1CC(=O)NN=C1c1ccc(OCC(F)(F)CO)c(F)c1F` (centres unmarked) [Example 108, 6-[4-(2,2-Difluoro-3-hydroxypropoxy)-2,3-difluorophenyl]-5-methyl-4,5-dihydro-2H-pyridazin-3-one], 4.1 nM. For `CC1CC(=O)NN=C1c1cc(Cl)c(OCC(F)(F)CO)c(Cl)c1` (centres unmarked) [Example 109, 6-[3,5-dichloro-4-(2,2-difluoro-3-hydroxypropoxy)phenyl]-5-methyl-4,5-dihydro-2H-pyridazin-3-one] the value was 1.6 nM; for `CC1CC(=O)NN=C1c1ccc(OCC(F)(F)CO)c(Cl)c1F` (centres unmarked) [Example 110, 6-[3-Chloro-4-(2,2-difluoro-3-hydroxypropoxy)-2-fluorophenyl]-5-methyl-4,5-dihydro-2H-pyridazin-3-one], 7.9 nM; for `CC1CC(=O)NN=C1c1cc(F)c(OCC(F)(F)CO)c(Cl)c1` (centres unmarked) [Example 111, 6-[3-Chloro-4-(2,2-difluoro-3-hydroxypropoxy)-5-fluorophenyl]-5-methyl-4,5-dihydro-2H-pyridazin-3-one], 3 nM. Regarding `CC1CC(=O)NN=C1c1ccc(OCC(F)(F)CO)c(Br)c1F` (centres unmarked) [Example 112, 6-[3-bromo-4-(2,2-difluoro-3-hydroxypropoxy)-2-fluorophenyl]-5-methyl-4,5-dihydro-2H-pyridazin-3-one], the IC50 is 2.3 nM.

For the compound `Cc1cc(C2=NNC(=O)CC2C)cc(Cl)c1OCC(F)(F)CO` (centres unmarked) [Example 113, 6-[3-chloro-4-(2,2-difluoro-3-hydroxypropoxy)-5-methylphenyl]-5-methyl-4,5-dihydro-2H-pyridazin-3-one], the IC50 stood at 1.1 nM. In the case of `C=Cc1c(OCC(F)(F)CO)ccc(C2=NNC(=O)CC2C)c1F` (centres unmarked) [Example 114, 6-[4-(2,2-Difluoro-3-hydroxypropoxy)-2-fluoro-3-vinylphenyl]-5-methyl-4,5-dihydro-2H-pyridazin-3-one] it was 3.3 nM.
